Assay results published in patent US20250353825A1, “CANNABICYCLOL DERIVATIVES AND PREPARATION METHODS THEREOF” (priority 2023, published 2025).
In brackets after ≈: the same amount, converted by molar mass.

Legend:
Assay type in all cases: cell-based
U251 = experiment: MTS cell viability assay, U251
Experimental: (§1) Primary viability screening: (1) the synthesized compounds 3a to 13d were respectively dissolved in DMSO to prepare a 40 μg/mL cannabicyclol and cannabicyclol derivative solutions.
(§2) (2) A control group: a 200 μL DMSO solvent.
(§3) (3) The solutions of compounds 3a to 13d were diluted in a twofold gradient to obtain cannabicyclol and cannabicyclol derivative solutions at concentrations of 40 μg/mL, 20 μg/mL, 10 μg/mL, 5 μg/mL, 2.5 μg/mL, 1.25 μg/mL, and 0.625 μg/mL, and 0.3125 μg/mL, respectively.
(§4) (4) Three glioblastoma stem cells (GSC-3, GSC-12, and GSC-18), three pancreatic cancer cell-derived stem cells (PANC-1-CSC, BXPC-3-CSC, and ASPC1-CSC), three liver cancer cell-derived stem cells (HepG2-CSC, MHCC97H-CSC, and SMMC7721-CSC), HEK-293T cells, 16 tumor cells (U251, U87, T98G, PANC1, BXPC3, ASPC1, HepG2, MHCC97H, SMMC7721, PC3, SKOV3, MDA-MB231, A549, HCT116, HEC-1B, MKN28), and differentiated glioblastoma stem cells (GSC-3diff and GSC-12diff) derived from GSC-3 and GSC-12 (all of the cells were provided by the Laboratory of Tumor Animal Model Preparation and Application Research, West China Hospital, Sichuan University) were inoculated into a 96-well plate at a concentration of 2×10^4 cells/well, and 100 μL of culture medium was then added to each well;
(5) 2) HEK-293T, GSC-3diff, GSC-12diff, and the 16 tumor cells were added with DMEM, 10% FBS, and 1% double antibody culture medium. Cancer stem cells (CSCs) were added with serum-free stem cell medium consisting of DMEM/F12, EGF (20 ng/mL), bFGF (20 ng/mL), B27 (1×), and 1% double antibody culture medium.
(6) Inoculated cells were put into a cell culture incubator for 24 hours, and after the cells were well adhered to the wall, the culture medium in the 96-well plate was discarded.
(7) 200 μL cannabicyclol and cannabicyclol derivatives solutions at different concentrations were added to the cultured cells.
(8) The experiment was set up with 3 replicates.
(9) The 96-well plate was placed in a cell culture incubator, and incubation was continued at 37° C. and 5% CO2 for 72 hours. Then, 100 μL of cannabicyclol and cannabicyclol derivative solution per well was discarded (100 μL of DMSO solvent was discarded for the control group), and 20 μL of LMTS (CellTiter AQueous Non-Radioactive Cell Proliferation Assay, #G3581) was mixed and continued to be placed in the cell incubator for 2 hours of incubation.
(§5) (10) The absorbance value at 490 nm was measured on an enzyme labeling apparatus, and the IC50 value was calculated.

PC3 = experiment: MTS cell viability assay, PC3; details: Homo sapiens, PC-3; Table 7, 72 hours; read-out: IC50 against PC3
Experimental: as §1, §2, §3
as §4, with “well; […]” for “well;”
as §5

GSC-3diff = experiment: MTS cell viability assay, differentiated glioblastoma stem cells GSC-3diff; details: Table 7, 72 hours, read-out: IC50 against GSC-3diff
Experimental: as §1, §2, §3
as §4, with “well; […]” for “well;”
as §5

HepG2-CSC = experiment: Soft agar colony (clone) formation, HepG2-CSC; details: crystal violet, FIG. 4, compound 3a 0, 5 and 5 [sic] μg/mL
Experimental: […] of low-melting-point agarose was dissolved in 12.5 mL of ddH2O to prepare a 3.2% low-melting-point agarose gel. The low-melting-point agarose gel was sterilized by autoclaving at 121° C. and 0.12 MPa for 20 minutes. After sterilization, the low-melting-point agarose gel was maintained at 60° C. in a drying oven for further use.
1.75 mL of 3.2% sterile low-melting-point agarose gel was taken, 5.25 mL of the corresponding complete medium was added, and the two were mixed thoroughly using a pipette to prepare a base gel at a concentration of 0.8%.
1 mL of the base gel was added to each well of a 6-well plate, ensuring that the base gel evenly covered the bottom of each well. The plate was placed at 4° C. for 5 minutes to allow the gel to solidify. After the gel had fully solidified, the plate was warmed at 37° C. for 5 minutes.
6 cells/cell lines (U251, SMMC7721, GSC-3, GSC-12, SMMC7721-CSC, and HepG2-CSC) were individually digested with 1× trypsin for 3 minutes. The corresponding complete culture medium (same as in the application example 1) was added to terminate the digestion. Cells were centrifuged at 1000 rpm for 3 minutes, and the cells were collected and counted. A total of 5×10^3 cells were added to each well, each group was set up with three replicates. […]

PANC1-CSC = experiment: MTS cell viability assay, PANC1-CSC; details: Table 6, tumor stem cell, 72 hours; read-out: IC50 against PANC1-CSC
Experimental: as §1, §2, §3
as §4, with “well; […]” for “well;”
as §5

U87 = experiment: MTS cell viability assay, U87; details: Homo sapiens, U-87 MG; Table 7, 72 hours; read-out: IC50 against U87
Experimental: as §1, §2, §3
as §4, with “well; […]” for “well;”
as §5

ASPC1 = experiment: MTS cell viability assay, ASPC1; details: Homo sapiens, Table 7, 72 hours, read-out: IC50 against ASPC1
Experimental: as §1, §2, §3
as §4, with “well; […]” for “well;”
as §5

BXPC3 = experiment: MTS cell viability assay, BXPC3; details: Homo sapiens, BXPC-3; Table 7, 72 hours; read-out: IC50 against BXPC3
Experimental: as §1, §2, §3
as §4, with “well; […]” for “well;”
as §5

## CCCCCc1cc(O)c2c(c1)OC1(C)CCC3C1C2C3(C)C (stereo not drawn) [Compound 3a, cannabicyclol]
U251; Homo sapiens, U-251, 72 h, read-out: IC50 against U251
  IC50: > 40 µg/mL
U251; primary viability screening, 72 hours, MTS, test concentration not stated
  Cell viability in U251 (%): 54%
PC3
  IC50: > 40 µg/mL
GSC-3diff
  IC50: 23.5 µg/mL (≈ 74.7 µM)
HepG2-CSC
  colony formation of HepG2-CSC: significantly inhibited
PANC1-CSC
  IC50: 13 µg/mL (≈ 41.3 µM)
U87
  IC50: > 40 µg/mL
ASPC1
  IC50: > 40 µg/mL
BXPC3
  IC50: > 40 µg/mL
